Columns and labels:
[1] = tested on: acute myeloid leukemia (AML); assay: Phase II study of single agent elacytarabine as second salvage therapy; assay type: in vivo, patients
Experimental: The formulation described in example 1 was administered to 61 patients in a phase II study of single agent elacytarabine as second salvage therapy for acute myeloid leukemia (AML). […] The response rate was 15%. The median overall survival was 5.3 months versus 1.5 months in the historical control. The median survival for the responders was 13.5 months. The 6 month survival rate was 44%.

[2] = Solubility of elacytarabine in water, phosphate buffer and soybean oil based emulsions; assay type: physicochemical
Description: Nevertheless, formulation of a therapeutically effective amount of the poorly soluble derivatives of formula (I) into a pharmaceutical composition suitable for parenteral administration represents a problem. For the sake of intravenous administration of the said derivatives, the composition of the excipients should be selected so that the said derivatives are solubilised. The cytarabine derivatives of formula (I) are amphiphilic and have poor solubility both in water and in oils. This limits the choice of potential excipients that can solubilise them.

[3] = tested on: MDR resistant cells (A549); conditions: A549, found earlier; cited from earlier work
[4] = Plasma concentration of elacytarabine, Ara-C and Ara-U in patients (FIG. 2); assay type: in vivo; conditions: average values for 61 patients
Description: FIG. 2: Plasma concentration of elacytarabine, Ara-C and Ara-U (deamination metabolite of Ara-C), average values for 61 patients.

[5] = tested on: Cis-platin resistant cells (NHIK 3025/DDP); conditions: found earlier; cited from earlier work

SMILES: CCCCCCCC/C=C/CCCCCCCC(=O)OC[C@H]1O[C@@H](n2ccc(N)nc2=O)[C@@H](O)[C@@H]1O [elacytarabine, 5′-O-(trans-9″-octadecenoyl)-1-β-D-arabinofuranosylcytosine]
- tolerability ([1]; also by elderly patients): well tolerated
- side effects ([1]; phase II AML patients): predictable and manageable
- solubility ([2]; aqueous buffer, phosphate buffer pH 7.4 at 25° C.): < 1 µg/mL
- solubility ([2]; deionised water, 25 °C, water): < 0.1 µg/mL
- dissolution in soybean oil based emulsions ([2]; earlier formulation studies): did not dissolve appropriately
- effect against resistant cells compared with corresponding non-resistant cell line [3]: same effect
- exposure to elacytarabine compared to cytarabine (Ara-C) [4]: ≥ 10 fold
- effect against resistant cells compared with corresponding non-resistant cell line [5]: same effect

Reference: US8912162B2, “Parenteral formulations of elacytarabine derivatives” (Clavis Pharma ASA, priority 2010, dated 2014)
